Holding throughout (format): functional
In experiment [1] the test system is Mycobacterium tuberculosis variant bovis. Description: Antimycobacterial activity against Mycobacterium bovis BCG ATCC 35737 at 50 uM by Luminescence assay.
For experiment [2] the test system is unchanged. Description: Antibacterial activity against Mycobacterium bovis BCG assessed as inhibition of bacterial growth by microdilution based analysis. In general terms: Dilution methods test growth across graded concentrations, often in twofold steps.
Experiment [3] has the same test system. Description: Antimycobacterial activity against Mycobacterium bovis BCG assessed as reduction in bacterial growth incubated for 48 hrs by HT-SPOTi assay.
Experiment [4] has the same test system. The experiment can be described thus: Antibacterial activity against Mycobacterium bovis BCG assessed as complete inhibition of bacterial growth by Alamar Blue/Resazurin. (In general: Alamar Blue is a resazurin reagent that responds to reducing activity.)

Values after ≈ are worked out from the molar mass of the structure shown. Starred links: 1 amine or outer side, 2 acyl side, 3 side chain; linkers in the order of their positions; H or OH if unused. Non-standard residues stand in square brackets, D forms with d. Residues, ends and D or L forms follow the SMILES beside them. ξ: configuration not given here. *: point of attachment. X1 = CCC(=O)C[C@@H](O)C[C@@H](C)C[C@H](N[*:1])C(=O)[*:2]; Alaψ(CH2NMeCH2CH2OH) = C[C@@H](CN(C)CCO)N*; Decanoyl(2R-Me) = CCCCCCCC[C@@H](C)C(=O)*; Ile(3ξ) = CCC(C)[C@H](N)C(=O)O; ξβ3hP = O=C(O)CC1CCCN1; Aib = CC(C)(N)C(=O)O

For the compound `Cc1ccc(C(=O)N2CCOCC2)cc1Nc1nccn1-c1cc(NC2CC2)ncn1`, it took 0.036 µM (≈ 0.0151 µg/mL) to inhibit growth in experiment [1] (MIC).

With `Cc1ccc2nc(C)c(C(=O)NCc3ccc(C(F)(F)F)cc3)n2c1`, the MIC – broadly, the lowest concentration found to suppress growth – in experiment [2] turned out to be 0.5 µM (≈ 0.174 µg/mL).

As to `CCCCCCCC[C@@H](C)C(=O)N1CCCC1CC(=O)N[C@@H](C[C@H](C)C[C@H](O)CC(=O)CC)C(=O)NC(C)(C)C(=O)NC(C)(C)C(=O)N[C@H](C(=O)N[C@H](C(=O)NC(C)(C)C(=O)NC(C)(C)C(=O)N[C@@H](C)CN(C)CCO)C(C)C)C(C)CC` (stereo partly drawn) ({Decanoyl(2R-Me)}-[ξβ3hP][X1][Aib][Aib][Ile(3ξ)]V[Aib][Aib]-{Alaψ(CH2NMeCH2CH2OH)}), in experiment [3], the MIC50 (as a rule, an inhibitory concentration at the 50% level, which refers to growth in some studies and to a panel of isolates in others) worked out at 33 µM (≈ 38.9 µg/mL).

As to `CCc1nc2ccc(Cl)cn2c1C(=O)NCc1ccc(N2CCC(c3ccc(OC(F)(F)F)cc3)CC2)cc1` [TELACEBEC], the MIC90 (commonly the lowest concentration that inhibits either 90% of growth or 90% of the strains tested, depending on the study) in experiment [4] was 0.125 µg/mL (≈ 0.224 µM).

Source of the values: ChEMBL document CHEMBL5226287, “Small organic molecules targeting the energy metabolism of Mycobacterium tuberculosis” (Eur J Med Chem, 2021).
